Source: patent US20080107625A1, “Inhibitors of Hepatitis C Virus” (Bristol-Myers Squibb Company, priority 2006, published 2008)

CC(C)(C)OC(=O)N[C@H]1CCCOC/C=C\[C@@H]2C[C@@]2(C(=O)NS(=O)(=O)C2CC2)NC(=O)[C@@H]2C[C@@H](OCc3ccccc3)CN2C1=O [Compound 5, (1S,4R,6S,14S,18R,7-cis)-18-benzyloxy-14-tert-butoxycarbonylamino-4-cyclopropanesulfonylaminocarbonyl-2,15-dioxo-3,16-diaza-10-oxatricyclo[14.3.0.04,6]nonadec-7-ene]
melting point: 147 to 149 °C
